The source of these data is patent publication US20160022605A1, “METHODS FOR REDUCING MICROSATELLITE INSTABILITY INDUCED BY CHEMOTHERAPY AND METHODS FOR SCREENING ANTIOXIDANTS THAT SUPPRESS DRUG-INDUCED MICROSATELLITE INSTABILITY WHILE ENHANCING THE CYTOTOXICITY OF CHEMOTHERAPEUTIC AGENTS” (priority 2014, published 2016).

“Also recorded” adds a separate entry of the source.

The test system of series [1] is HCT116 cells. The experiment in a line: Intracellular ROS assay (DCDHF-DA, flow cytometry). Format: cell-based, human. To be noted: 3-day treatment, 3-day recovery; 10 μM 5-FU, 25 nM methotrexate, 50 μM CCNU, 1 μM oxaliplatin. The procedure:
Intracellular ROS levels were measured using an oxidation-sensitive 2′,7′-dichlorodihydrofluorescein diacetate (DCDHF-DA) probe, which can be oxidized to the fluorescent 2′,7′-dichloro-fluorescein (DCF) product. After treatment, HCT116 derivatives in 12-well plates were harvested, washed and resuspended in PBS containing 10 μM DCDHF-DA, followed by 30-min incubation at 37° C. in the dark before being subjected to flow cytometry (Quanta SC-MPL). For a ROS curve of H2O2, 2×10^5 HCT116 derivatives were detached, washed, and incubated with 10 μM DCDHF-DA for 30 min at 37° C., followed by flow cytometric analysis after 30-min exposure to different concentrations of H2O2. After excluding cell debris on the basis of electronic volume and side scatter, the fluorescence intensity of DCF was measured in fluorescence channel 1 of the flow cytometer (λex: 488 nm; λem: 525 nm). The ROS level is expressed as the mean fluorescence intensity (MFI) of DCF from 10,000 cells per sample.
On the technique in general: In flow cytometry, cells or beads pass a laser one at a time.

Series [2] relates to HCT116 cells. The experiment in a line: Fluoresceinated PCR-based assay of endogenous microsatellites (Bethesda panel). It is filed as cell-based, human. To be noted: 3-day recovery. The protocol: Genomic DNA was isolated from HCT116 derivatives in 12-well plates with EasyPure Genomic DNA mini kit. The isolated DNA were amplified with fluoresceinated primers specific for the Bethesda panel of microsatellite [Boland et al., 1998] and selected coding microsatellites as described previously [Li et al., 2014]. Fluoresceinated PCR products were analyzed by the ABI 310 genetic analyzer, and electropherograms were generated with GeneScan Collection software (ABI).

For series [3], the system named is HCT116-(CA)13 cells. In words: Frameshift mutation (MSI) analysis by flow cytometry with dual-fluorescent reporter. To be noted: for mutation frequency: 3-day treatment, 3-day recovery, untreated 0.46±0.04%; for MSI induction (in words): HCT116 derivatives, single drug.
Experimental: (§2) Specified cells were seeded at 1×10^4 or 1×10^5 cells per well in 96-well or 12-well plates respectively. One day after seeding, the cells were treated in triplicates for 3 days with a tested drug in the presence or absence of an antioxidant at indicated concentrations. Subsequently, the drug and/or antioxidant were removed and cells were washed and recovered in fresh growth medium for 3 days before being subjected to analyses. […] On the other hand, PBS was used to make 0.5 M vitamin C stock, saline for making 0.5 M NAC and 0.1 M GSH stocks, and DMSO for making 10 mM curcumin and 10 mM eugenol. Prior to the experiments, PBS was used for diluting the drugs and antioxidants and the final solvent concentration was kept the same for all tested compounds, including untreated controls.
At the end of treatment, adherent cells in 12-well plates were trypsinized and resuspended in PBS containing 1 mM EDTA, and filtered through a 40-μm strainer, and then subjected to flow cytometry (Quanta™ SC-MPL, Beckman Coulter). […] The frequency of frameshift mutations is expressed as the percentage of DsRed^+GFP^+ subpopulation in the GFP^+ cell population.
For series [4], the system named is HCT116-(CA)13 cells. In words: REDOX library screen by high-content microscopy (MSI frequency and cell numbers). Format: cell-based, human. To be noted: 1 μM oxaliplatin, additional concentrations, 3-day co-treatment, 3-day recovery. The protocol:
The REDOX library (Cat# BML-2835, ENZO, USA) is composed of 84 compounds that were supplied at 10 mM in DMSO. HCT116-(CA)13 cells were seeded at 1×10^4 cells per well in 96-well glass plates containing 100 μl growth medium. One day after seeding, the cells were co-treated with 1 μM oxaliplatin and an antioxidant at specified concentrations in triplicate for three days, followed by a 3-day recovery in fresh growth medium without the drug and antioxidants.

Series [5] deals with HCT116-(CA)13 cells. Particulars: for suppression of methotrexate-induced MSI: 25 nM methotrexate with 2.5 mM NAC, 250 μM vitamin C or 1.5 μM curcumin; for suppression of methotrexate-induced MSI / suppression of CCNU-induced MSI: 5 mM GSH; for suppression of CCNU-induced MSI: 50 μM CCNU with 2.5 mM NAC, 250 μM vitamin C, 1.5 μM curcumin or 150 μM eugenol. The protocol: After treatment, HCT116-(CA)13 cells in 96-well glass plates (Corning-Costar®) were fixed with 4% paraformaldehyde and nuclei were stained with 1 μg/ml Hoechst 33258. Fluorescent images of the cells were acquired at 100× magnification by ImageXpress^Micro system (Molecular Devices) and analyzed with MetaXpress® V3.1 software as described previously [Li et al., 2014]. The frequency of frameshift mutations of the (CA)13 microsatellite is expressed as the percentage of the DsRed^+GFP^+Hoechst^+ subpopulation in the GFP^+Hoechst^+ population.

In series [6] the test system is HCT116-(CA)13 cells. The experiment in a line: Cell viability (MTT assay) with drug and antioxidant co-treatment. To be noted: for effect on methotrexate-mediated cytotoxicity (in words): 25 nM methotrexate with NAC, GSH or vitamin C. The procedure: (§1) Cell viability was determined by the MTT assay. Briefly, the optical density of colored formazan converted from MTT by viable cells was determined as previously described [Chang et al., 2002] at 595 nm with an ELISA reader (Thermo Labsystems). Cell viability is expressed as the optical density value of drug-treated cells relative to that of solvent-treated cells, after subtracting the background from the medium.
In general terms: Tetrazolium assays rely on reduction of a dye to a coloured formazan, in cell work by metabolically active cells.

The next series deals with HCT116+chr3-(CA)13 cells. The experiment in a line: MSI analysis by high-content microscopy in MMR-proficient cells. It is filed as cell-based, human. Particulars: 3-day treatment (50 μM CCNU, 5 μM etoposide, 25 nM vinblastine), 3-day recovery; base line 0.35%.
In another series the test system is HCT116+chr3 cells. The experiment in a line: MTT assay in MMR-proficient cells. To be noted: MMR-proficient HCT116+chr3, 1 μM oxaliplatin with 2-10 μM antioxidant, 3-day co-treatment. The protocol: as §1
Series [7] relates to HCT116 cells. In words: MTT assay, oxaliplatin co-treatment in MMR-deficient cells. Particulars: MMR-deficient HCT116, 1 μM oxaliplatin with 2-10 μM antioxidant, 3-day co-treatment. The procedure:
as §1

Where [8] appears, read: 3-day treatment, 10 μM 5-FU, 5 μM etoposide, 25 nM vinblastine, 50 μM CCNU, 25 nM methotrexate, 1 μM oxaliplatin.
The mark [9] stands for this setting: 5 μM etoposide with 250 μM vitamin C.
Setting [10] is: 1-day treatment, 100 μM CCNU or 100 nM methotrexate.

Experimental for HCT116+chr3-(CA)13 cells: as §2

In the case of `O=c1[nH]cc(F)c(=O)[nH]1` [5-FU, 5-fluoro-1H-pyrimidine-2,4-dione], the “intracellular ROS levels” value in the series with HCT116 cells [1] is “increased intracellular ROS levels”. Also, the “instability of Bethesda panel microsatellite markers” value (“instability” for short) in the series with HCT116 cells [2] (setting [8]) is “induced the instability of the BAT25 microsatellite”. Moreover, the mutation frequency in the series on HCT116-(CA)13 cells [3] (2.5 μM) came out at 5.91±0.49%; in the series on HCT116-(CA)13 cells [3] (5 μM), 6.37±0.96%; in the series with HCT116-(CA)13 cells [3] (10 μM) it was 8.05±2.01%. Further, in the series on HCT116-(CA)13 cells [3] (5-FU 2.5-10 μM, HCT116-(CA)13 vs HCT116-(N)16), the “susceptibility of (CA)13 microsatellite to drug-induced mutations compared to (N)16 random sequence” value is listed as 1.2-2.8 fold. Further, the “MSI induction (in words)” value in the series on HCT116-(CA)13 cells [3] is reported as “induced MSI”.
`O=c1cc(-c2ccccc2)oc2cc(O)c(O)c(O)c12` [baicalein, 5,6,7-trihydroxy-2-phenylchromen-4-one]: in the series with HCT116-(CA)13 cells [4], the “outcome of secondary screen: oxaliplatin-induced MSI and oxaliplatin-mediated cytotoxicity” value (“outcome of secondary screen” below) is given as “most promising antioxidants”.
For `N[C@@H](CCC(=O)N[C@@H](CS)C(=O)NCC(=O)O)C(=O)O` [GSH, glutathione], the “suppression of methotrexate-induced MSI” value with HCT116-(CA)13 cells [5] was determined as 13%.
Take `O=C1O[C@H]([C@@H](O)CO)C(O)=C1O` [vitamin C]: in the series on HCT116-(CA)13 cells [5], the “suppression of methotrexate-induced MSI” value was 12% and the “suppression of CCNU-induced MSI” value was about 24%. Besides, the “suppression of etoposide-induced MSI” value with HCT116-(CA)13 cells [5] (setting [9]) is about 40%. Also, in the series on HCT116-(CA)13 cells [6], the “effect on methotrexate-mediated cytotoxicity (in words)” value was “without affecting drug cytotoxicity”. In the series on HCT116-(CA)13 cells [6] (setting [9]), the “enhancement of etoposide-mediated cytotoxicity” value was about 10%. Further, the “effect on CCNU-mediated cytotoxicity (in words)” value with HCT116-(CA)13 cells [6] (50 μM CCNU with 250 μM vitamin C) was “without significantly affecting drug cytotoxicity”.
As to `CCCCCCCCOC(=O)/C=C/c1ccc(O)c(O)c1` [n-octyl caffeate, Octyl 3-(3,4-dihydroxyphenyl)prop-2-enoate], the “outcome of secondary screen” value in the series on HCT116-(CA)13 cells [4] is on record as “most promising antioxidants”.
Take `Cc1cc(C2CCCCC2)n(O)c(=O)c1` [ciclopirox ethanolamine, 2-aminoethanol;6-cyclohexyl-1-hydroxy-4-methylpyridin-2-one]: the “outcome of secondary screen” value in the series with HCT116-(CA)13 cells [4] was “most promising antioxidants”.
The compound `O=NN(CCCl)C(=O)NC1CCCCC1` [CCNU, 1-(2-chloroethyl)-3-cyclohexyl-1-nitrosourea] gave an MSI frequency in the series on HCT116+chr3-(CA)13 cells of 1.26%. In addition, the “intracellular ROS levels” value in the series with HCT116 cells [1] is listed as “generated the highest ROS level”. Besides, in the series with HCT116 cells [2] (100 μM CCNU, 1-day treatment), the “alteration of D5S346” value is 1-bp insertion in a non-repetitive region of D5S346. The “instability” value in the series on HCT116 cells [2] (setting [10]) is “caused the instability of BAT25 and/or BAT26 microsatellites”; in the series on HCT116 cells [2] (setting [8]) it was “failed to detect alterations”. For the same compound, the “MSI induction (in words)” value with HCT116-(CA)13 cells [3] is given as “induced MSI”.
Consider `CC[C@]1(O)C[C@@H]2CN(CCc3c([nH]c4ccccc34)[C@@](C(=O)OC)(c3cc4c(cc3OC)N(C)[C@H]3[C@@](O)(C(=O)OC)[C@H](OC(C)=O)[C@]5(CC)C=CCN6CC[C@]43[C@@H]65)C2)C1` [vinblastine], for which, in the series with HCT116+chr3-(CA)13 cells, the MSI frequency stood at 2.10%. Also, the “instability” value in the series on HCT116 cells [2] (setting [8]) was “destabilized the BAT26 microsatellite”. Besides, in the series on HCT116-(CA)13 cells [3], the “MSI induction (in words)” value was “induced MSI”.
`C=CCc1ccc(O)c(OC)c1` [eugenol]: the “suppression of vinblastine-induced MSI” value in the series on HCT116-(CA)13 cells [5] (25 nM vinblastine with 150 μM eugenol) is 40%. Besides, in the series with HCT116-(CA)13 cells [5], the “suppression of CCNU-induced MSI” value is “approximately 55%”.
For the compound `CN(Cc1cnc2nc(N)nc(N)c2n1)c1ccc(C(=O)N[C@@H](CCC(=O)O)C(=O)O)cc1` [methotrexate, (2S)-2-[[4-[(2,4-diaminopteridin-6-yl)methyl-methylamino]benzoyl]amino] pentanedioic acid], the “intracellular ROS levels” value with HCT116 cells [1] is recorded as “but not 25 nM methotrexate increased intracellular ROS levels”. For the same compound, the results for the “instability” value in the series on HCT116 cells [2] (setting [10]) and in the series on HCT116 cells [2] (setting [8]) were “caused the instability of BAT25 and/or BAT26 microsatellites” and “failed to detect alterations”, respectively. In the series with HCT116-(CA)13 cells [3], the “MSI induction (in words)” value is listed as “induced MSI”.
With `Cc1cc2c(C(C)C)c(O)c(O)c(C=O)c2c(O)c1-c1c(C)cc2c(C(C)C)c(O)c(O)c(C=O)c2c1O` [gossypol, 7-(8-formyl-1,6,7-trihydroxy-3-methyl-5-propan-2-ylnaphthalen-2-yl)-2,3,8-trihydroxy-6-methyl-4-propan-2-ylnaphthalene-1-carbaldehyde], the “effect on oxaliplatin-mediated cytotoxicity” value in the series on HCT116+chr3 cells and in the series on HCT116 cells [7] was “enhanced oxaliplatin-mediated cytotoxicity in a concentration-dependent manner” each time. In addition, the “outcome of secondary screen” value in the series with HCT116-(CA)13 cells [4] is listed as “most promising antioxidants; also recorded: suppress oxaliplatin-induced MSI while enhancing oxaliplatin-mediated cytotoxicity”.
In the series on HCT116+chr3-(CA)13 cells, `COc1cc([C@@H]2c3cc4c(cc3[C@@H](O[C@@H]3O[C@@H]5CO[C@@H](C)O[C@H]5[C@H](O)[C@H]3O)[C@H]3COC(=O)[C@H]23)OCO4)cc(OC)c1O` [etoposide, (5S,5aR,8aR,9R)-5-[[(2R,4aR,6R,7R,8R,8aS)-7,8-dihydroxy-2-methyl-4,4a,6,7,8,8a-hexahydropyrano[3,2-d][1,3]dioxin-6-yl]oxy]-9-(4-hydroxy-3,5-dimethoxyphenyl)-5a,6,8a,9-tetrahydro-5H-[2]benzofuro[6,5-f][1,3]benzodioxol-8-one] displayed an MSI frequency of 3.74%. Moreover, the “instability” value with HCT116 cells [2] (setting [8]) is “destabilized the BAT26 microsatellite”.
`N#CC(=Cc1ccc(O)c(O)c1)C(=O)OC/C=C/c1ccccc1` (stereo in doubt) [CDC, [(E)-3-phenylprop-2-enyl] (Z)-2-cyano-3-(3,4-dihydroxyphenyl)prop-2-enoate]: the “outcome of secondary screen” value with HCT116-(CA)13 cells [4] is “most promising antioxidants”.
Regarding `CC(=O)N[C@@H](CS)C(=O)O` [NAC, N-acetylcysteine], in the series with HCT116-(CA)13 cells [5], the “suppression of methotrexate-induced MSI” value worked out at 34%. The “effect on methotrexate-mediated cytotoxicity (in words)” value with HCT116-(CA)13 cells [6] was “without affecting drug cytotoxicity”. The “effect on oxaliplatin-mediated cytotoxicity (in words)” value with HCT116-(CA)13 cells [6] (1 μM oxaliplatin with 2.5 mM NAC, 5 mM GSH or 150 μM eugenol) is “totally abolished”. Besides, the “decrease of CCNU-mediated cytotoxicity” value with HCT116-(CA)13 cells [6] (50 μM CCNU with 2.5 mM NAC or 5 mM GSH) was “approximately 25%”.
With `N[C@@H]1CCCC[C@H]1N.O=C(O)C(=O)O.[Pt]` [oxaliplatin, (1R,2R)-cyclohexane-1,2-diamine;oxalic acid;platinum], the “intracellular ROS levels” value in the series with HCT116 cells [1] is reported as “intermediate ROS-generating abilities”. Further, the “instability” value in the series on HCT116 cells [2] (setting [8]) was “alterations of four out of five microsatellite markers”. Besides, the “MSI induction (in words)” value in the series with HCT116-(CA)13 cells [3] was “strong MSI-inducing; also recorded: induced MSI”.
